In article PMC9042801 (RSC Advances, 2021):

Legend:
[1] = in vitro; conditions: dog
[2] = test system: influenza virus A/Puerto Rico/8/34 (H1N1); conditions: for SI (CC50/IC50): influenza virus A/Puerto Rico/8/34 (H1N1), MDCK cells
[3] = test system: vaccine virus (VV, strain Copenhagen); test: organism not typed; type: cell-based
[4] = test system: bovine diarrhea virus (BDV) (strain VC-1); test: Antiviral activity against BDV on CCV cells; type: cell-based
[5] = test system: herpes simplex virus type 1 (HSV-1, strain VR-3); test: Antiviral activity against HSV-1 on Vero cells; type: cell-based; conditions: HSV-1, Vero cells, moi 0.01, 3 days
[6] = test system: MDCK cell line; conditions: MTT, 72 h
[7] = CC50, MDCK cell line, MTT, 72 h

CSc1ccc(-c2c(C(F)(F)F)n(C)n(-c3ccccc3)c2=O)cc1 [Compound 3g]
CC50 [1, 7]: 263 ± 19 µM | IC50 [2]: > 91 µM

Cn1c(C(F)(F)F)c(I)c(=O)n1-c1ccccc1 [Compound 5a, 4-iodo-5-trifluoromethyl-antipyrine]
SIBOB (selectivity index) ([3]; VV, Vero cells): 2.9 | activity against the vaccine virus (strain Copenhagen), in words ([3]; Vero cells): weak activity | IC50 ([3]; Vero, 72 h): 103 ± 10 µM | IC50 ([4]; 72 h): 46.9 ± 2 µM | SIVDC (selectivity index) ([4]; BDV, CCV cells): 6.4 | activity against bovine diarrhea virus (strain VC-1), in words ([4]; CCV cells): weak activity | IC50 [5]: Inactive | CC50 [1, 7]: > 815 µM

Cn1c(C(F)(F)C(F)(F)F)c(I)c(=O)n1-c1ccccc1 [Compound 5b]
CC50 [1, 7]: 378 ± 26 µM

Cn1c(C(F)(F)F)c(C#Cc2ccccc2)c(=O)n1-c1ccccc1 [Compound 6a, 1-methyl-2-phenyl-4-(phenylethynyl)-5-(trifluoromethyl)-1,2-dihydro-3H-pyrazol-3-one]
CC50 [6]: > 877 µM | CC50 [1, 7]: > 815 µM | SI (CC50/IC50) [2]: 15

NC(=O)c1ncn([C@@H]2O[C@H](CO)[C@@H](O)[C@H]2O)n1 [Ribavirin, reference compound]
CC50 [1]: > 2130 µM | SI (CC50/IC50) [2]: 59
